Reference: US20090176726A1, “METHODS FOR TREATING MITF-RELATED DISORDERS” (priority 2005, published 2009)
Read-outs that look alike come from different tables or passages of the source.

Assays:
MITF [1] = type: cell-based, human
MITF mRNA = type: cell-based, human
HIF-1α [2] = type: cell-based, human
FoxD1 = type: cell-based, human
MITF [3] = assay: MITF protein level in human melanoma cells (UACC62); type: cell-based
HIF-1α [4] = assay: HIF-1α protein level in human melanoma cells (UACC62); type: cell-based
MITF [5] = assay: MITF expression in UACC62 cells transfected with constitutive MITF vector or empty vector; type: cell-based, human; settings: increasing levels of DMOG
Source text: (§1) Human melanoma cells (UACC62) were transfected with a vector that constitutively expresses MITF off a promoter different from its natural promoter. As a control, other cells were transfected with empty vector. Both cell types were exposed to increasing levels of DMOG, which mimics certain aspects of hypoxia in upregulating HIF.

[6] = system: Human melanoma cells (UACC62); assay: Cell death of transfected UACC62 cells exposed to DMOG; type: cell-based
Source text: as §1

[7] = UACC62 cells, 200 μM DFO, 0, 2, 6, 8 and 24 hrs, FIG. 4B
[8] = UACC62 cells transformed with empty vector

**Q.** Which “level of MITF protein” value (MITF [1]) does the source give for `[Cl-].[Cl-].[Co+2]` [CoCl2] here?
**A.** decreased as CoCl2 was increased

**Q.** And the “MITF mRNA levels” value (MITF mRNA)?
**A.** decreased

**Q.** And the “level of HIF-1α” value (HIF-1α [2])?
**A.** increased as CoCl2 was increased

**Q.** And the “FoxD1 expression (microarray)” value (FoxD1)?
**A.** upregulated

**Q.** And the MITF protein levels (MITF [3])?
**A.** decreased

**Q.** And the “downregulation of MITF by CoCl2” value (MITF [3])?
**A.** substantially blocked

**Q.** And the “level of MITF protein” value (MITF [3])?
**A.** decreased

**Q.** What about the HIF-1α levels (HIF-1α [4]) of the same molecule?
**A.** increased

**Q.** And the “level of HIF-1α protein” value (HIF-1α [4])?
**A.** increased

**Q.** Which MITF protein levels (MITF [3]; [7]) does the source give for `CC(=O)N(O)CCCCCNC(=O)CCC(=O)N(O)CCCCCNC(=O)CCC(=O)N(O)CCCCCN` [DFO, desferrioxamine] here?
**A.** decreased steadily

**Q.** What about the HIF-1α protein levels (HIF-1α [4]; [7]) of the same molecule?
**A.** increased steadily

**Q.** How did the MITF expression (MITF [5]; [8]) turn out when `COC(=O)CNC(=O)C(=O)OC` [DMOG, dimethyl-oxalylglycine] was run?
**A.** significant decrease

**Q.** What about the MITF expression (MITF [5]; UACC62 cells transformed with vector that constitutively expresses MITF) of the same molecule?
**A.** did not exhibit a detectable decrease

**Q.** What about the cell death ([6]; UACC62 cells that constitutively express MITF, at DMOG levels lethal to empty vector cells) of the same molecule?
**A.** protected from cell death

**Q.** What about the cell death [6, 8] of the same molecule?
**A.** lethal

**Q.** What about the “level of MITF protein” value (MITF [3]; UACC62 cells, 1 mM DMOG, 0, 2, 6, 8 and 24 hrs, FIG. 4A) of the same molecule?
**A.** decreased

**Q.** And the “HIF-1α levels at 24 hours” value (HIF-1α [4]; UACC62 cells, 1 mM DMOG, 24 hours compared with 8 hours, FIG. 4A)?
**A.** somewhat lower than at 8 hours

**Q.** What about the “HIF-1α protein level, 2 to 8 hours” value (HIF-1α [4]; UACC62 cells, 1 mM DMOG, FIG. 4A) of the same molecule?
**A.** increased steadily
